Assay results as given in patent US10219516B2, “Molecules having pesticidal utility, and intermediates, compositions, and processes, related thereto” (priority 2015, dated 2019).

Key:
Assay type in all cases: in vivo
[1] = system: Yellow Fever Mosquito (Aedes aegypti, AEDSAE); test: Bioassay on Yellow Fever Mosquito (YFM), 96-well plate larval assay; details: Species YFM (Yellow Fever Mosquito)
In short: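 Each well was scored for mortality after 3 days at room temperature under a non-evaporative lid. Test molecules came from DMSO masters (4000 ppm stock) diluted with water/acetone 90:10 and dispensed into six replicate plates, which were then infested with roughly 1-day-old larvae in liver-powder water.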

[2] = system: Cabbage Looper (Trichoplusia ni, TRIPNI); test: Bioassay on Cabbage Looper (CL), 128-well diet tray assay; details: Trichoplusia ni; Species CL (Cabbage Looper); read-out: CL (Biological Results, rating)
In short: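 Test molecule is dissolved in 90:10 acetone-water and applied at 50 μg/cm^2 onto artificial diet, then dried. One to five second-instar larvae go into each of eight wells. Trays, sealed but vented, stay at 25° C., 14:10 light-dark, five to seven days, after which mortality is averaged.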

[3] = system: Green Peach Aphid (Myzus persicae, MYZUPE); test: Bioassay on Green Peach Aphid (GPA), foliar spray on infested cabbage seedlings; details: foliar, 72 h, Species GPA (Green Peach Aphid), read-out: GPA (Biological Results, rating)
In short: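 Cabbage seedlings (2-3 true leaves) infested with 20-50 wingless adult and nymph aphids one day before treatment; sprayed to runoff at 200 ppm in 0.025% Tween 20 water with 20% acetone/methanol, four pots per treatment. Held three days at about 25° C; live aphids counted, % control by Abbott's correction versus solvent check.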

[4] = system: Beet Armyworm (Spodoptera exigua, LAPHEG); test: Bioassay on Beet Armyworm (BAW), 128-well diet tray assay; details: Species BAW (Beet Armyworm), read-out: BAW (Biological Results, rating)
In short: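 Percent mortality, averaged across eight replicate wells, was scored after five to seven days at 25° C. under a 14:10 light-dark cycle. Each well's diet carried 50 μg/cm^2 of the dried test molecule and held one to five second instar larvae.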

Compound	YFM (Biological Results, rating) [1]	pest or weed control at 50 µg/cm2 [2]	pest or weed control at 200 µg/mL [3]	pest or weed control at 50 µg/cm2 [4]
CCc1cccc(C)c1NC(=O)c1cc(NC(=O)[C@H]2[C@H](c3cc(Cl)cc(Cl)c3)C2(Cl)Cl)ccc1Cl (relative stereo) [F42, trans-2-Chloro-5-(2,2-dichloro-3-(3,5-dichlorophenyl)cyclopropane-1-carboxamido)-N-(2-ethyl-6-methylphenyl)benzamide]	A (80-100)	50 to 100%	0 to 80%	50 to 100%
CN(C(=O)c1cc(NC(=O)[C@H]2[C@H](c3cc(Cl)cc(Cl)c3)C2(Cl)Cl)ccc1Cl)c1ccc(F)cc1F (relative stereo) [F44, trans-2-Chloro-5-(2,2-dichloro-3-(3,5-dichlorophenyl)cyclopropane-1-carboxamido)-N-(2,4-difluorophenyl)-N-methylbenzamide]	A (80-100)	50 to 100%	80 to 100%	50 to 100%
CN(C(=O)c1cc(NC(=O)[C@H]2[C@H](c3cc(Cl)cc(Cl)c3)C2(Cl)Cl)ccc1F)c1cccc(F)c1 (relative stereo) [F46, trans-5-(2,2-Dichloro-3-(3,5-dichlorophenyl)cyclopropane-1-carboxamido)-2-fluoro-N-(3-fluorophenyl)-N-methylbenzamide]	A (80-100)	50 to 100%	0 to 80%	50 to 100%
CN(C(=O)c1cccc(NC(=O)[C@H]2[C@H](c3cc(Cl)cc(Cl)c3)C2(Cl)Cl)c1F)c1ccc(F)cc1 (relative stereo) [F47, trans-3-(2,2-Dichloro-3-(3,5-dichlorophenyl)cyclopropane-1-carboxamido)-2-fluoro-N-(4-fluorophenyl)-N-methylbenzamide]	B (More than 0-Less than 80)	50 to 100%	0 to 80%	50 to 100%
O=C(Nc1cccc(F)c1)c1cc(NC(=O)[C@H]2[C@H](c3cc(Cl)c(Cl)c(Cl)c3)C2(Cl)Cl)ccc1Cl (relative stereo) [F50, trans-2-Chloro-5-(2,2-dichloro-3-(3,4,5-trichlorophenyl)cyclopropane-1-carboxamido)-N-(3-fluorophenyl)benzamide]	A (80-100)	50 to 100%	0 to 80%	50 to 100%
O=C(Nc1cccc(F)c1)c1cc(NC(=O)[C@H]2[C@H](c3ccc(Cl)c(Cl)c3)C2(Cl)Cl)ccc1Cl (relative stereo) [F51, trans-2-Chloro-5-(2,2-dichloro-3-(3,4-dichlorophenyl)cyclopropane-1-carboxamido)-N-(3-fluorophenyl)benzamide]	A (80-100)	50 to 100%	80 to 100%	50 to 100%
CN(C(=O)c1cc(NC(=O)[C@H]2[C@H](c3cc(Cl)c(Cl)c(Cl)c3)C2(Cl)Cl)ccc1Cl)c1ccc(F)cc1 (relative stereo) [F52, trans-2-Chloro-5-(2,2-dichloro-3-(3,4,5-trichlorophenyl)cyclopropane-1-carboxamido)-N-(4-fluorophenyl)-N-methylbenzamide]	A (80-100)	50 to 100%	80 to 100%	50 to 100%
CN(C(=O)c1cc(NC(=O)[C@H]2[C@H](c3ccc(Cl)c(Cl)c3)C2(Cl)Cl)ccc1Cl)c1ccc(F)cc1 (relative stereo) [F53, trans-2-Chloro-5-(2,2-dichloro-3-(3,4-dichlorophenyl)cyclopropane-1-carboxamido)-N-(4-fluorophenyl)-N-methylbenzamide]	A (80-100)	50 to 100%	80 to 100%	50 to 100%
Cc1cc(C#N)ccc1NC(=O)c1cc(NC(=O)[C@H]2[C@H](c3cc(Cl)c(Cl)c(Cl)c3)C2(Cl)Cl)ccc1Cl (relative stereo) [F54, trans-2-Chloro-N-(4-cyano-2-methylphenyl)-5-(2,2-dichloro-3-(3,4,5-trichlorophenyl)cyclopropane-1-carboxamido)benzamide]	A (80-100)	50 to 100%	0 to 80%	50 to 100%
Cc1cc(C#N)ccc1NC(=O)c1cc(NC(=O)[C@H]2[C@H](c3ccc(Cl)c(Cl)c3)C2(Cl)Cl)ccc1Cl (relative stereo) [F55, trans-2-Chloro-N-(4-cyano-2-methylphenyl)-5-(2,2-dichloro-3-(3,4-dichlorophenyl)cyclopropane-1-carboxamido)benzamide]	A (80-100)	50 to 100%	80 to 100%	50 to 100%
CN(C(=O)c1cc(NC(=O)[C@H]2[C@H](c3ccc(Cl)c(Cl)c3)C2(Cl)Cl)ccc1F)c1ccc(F)cc1F (relative stereo) [F64, trans-5-(2,2-Dichloro-3-(3,4-dichlorophenyl)cyclopropane-1-carboxamido)-N-(2,4-difluorophenyl)-2-fluoro-N-methylbenzamide]	B (More than 0-Less than 80)	50 to 100%	80 to 100%	50 to 100%
O=C(Nc1ccc(F)cn1)c1cc(NC(=O)[C@H]2[C@H](c3cc(Cl)cc(Cl)c3)C2(Cl)Cl)ccc1Cl (relative stereo) [F76, trans-2-Chloro-5-(2,2-dichloro-3-(3,5-dichlorophenyl)cyclopropane-1-carboxamido)-N-(5-fluoropyridin-2-yl)benzamide]	B (More than 0-Less than 80)	50 to 100%	80 to 100%	50 to 100%
CNC(=O)c1ccc(NC(=O)c2cc(NC(=O)[C@H]3[C@H](c4cc(Cl)cc(Cl)c4)C3(Cl)Cl)ccc2Cl)cn1 (relative stereo) [F77, trans-5-(2-Chloro-5-(2,2-dichloro-3-(3,5-dichlorophenyl)cyclopropane-1-carboxamido)benzamido)-N-methylpicolinamide]	A (80-100)	50 to 100%	80 to 100%	50 to 100%
O=C(Nc1ccc(F)cc1)c1cc(NC(=O)[C@H]2[C@H](c3ccc(OC(F)(F)F)c(Cl)c3)C2(Cl)Cl)ccc1Cl (relative stereo) [F79, trans-2-Chloro-5-(2,2-dichloro-3-(3-chloro-4-(trifluoromethoxy)phenyl)cyclopropane-1-carboxamido)-N-(4-fluorophenyl)benzamide]	B (More than 0-Less than 80)	50 to 100%	80 to 100%	50 to 100%
CN(C(=O)c1cc(NC(=O)[C@H]2[C@H](c3ccc(OC(F)(F)F)c(Cl)c3)C2(Cl)Cl)ccc1Cl)c1ccc(F)cc1 (relative stereo) [F80, trans-2-Chloro-5-(2,2-dichloro-3-(3-chloro-4-(trifluoromethoxy)phenyl)cyclopropane-1-carboxamido)-N-(4-fluorophenyl)-N-methylbenzamide]	A (80-100)	50 to 100%	80 to 100%	50 to 100%
O=C(Nc1ccc(F)cc1)c1cc(NC(=O)[C@H]2[C@H](c3cc(Cl)cc(C(F)(F)F)c3)C2(Cl)Cl)ccc1Cl (relative stereo) [F87, trans-2-Chloro-5-(2,2-dichloro-3-(3-chloro-5-(trifluoromethyl)phenyl)cyclopropane-1-carboxamido)-N-(4-fluorophenyl)benzamide]	A (80-100)	50 to 100%	80 to 100%	50 to 100%
CCN(C(=O)c1cc(NC(=O)[C@H]2[C@H](c3cc(Cl)cc(Cl)c3)C2(Cl)Cl)ccc1Cl)c1ccc(F)cc1 (relative stereo) [F99, trans-2-Chloro-5-(2,2-dichloro-3-(3,5-dichlorophenyl)cyclopropane-1-carboxamido)-N-ethyl-N-(4-fluorophenyl)benzamide]	B (More than 0-Less than 80)	50 to 100%	80 to 100%	50 to 100%
CCCN(C(=O)c1cc(NC(=O)[C@H]2[C@H](c3cc(Cl)cc(Cl)c3)C2(Cl)Cl)ccc1Cl)c1ccc(F)cc1 (relative stereo) [F101, trans-2-Chloro-5-(2,2-dichloro-3-(3,5-dichlorophenyl)cyclopropane-1-carboxamido)-N-(4-fluorophenyl)-N-propylbenzamide]	A (80-100)	50 to 100%	0 to 80%	50 to 100%
